Series [1] is described as follows: Solubility comparison: saturated solutions in SGF, FaSSIF, FeSSIF and high purity water, concentration by HPLC. The settings on record: for Solubility: HPLC; for solubility at 24 h: thermodynamic from solid. Here is the method:
Solubility comparison between crystalline Form M of lenvatinib mesylate of the present disclosure and anhydrate Form C in patent CN1890220A:
Crystalline Form M of lenvatinib mesylate prepared in example 1 and anhydrate Form C in CN1890220A were prepared into saturated solution in pH 1.8 SGF (Simulated gastric fluid), pH 5.0 FeSSIF (Fed state simulated intestinal fluid), FassIF (Fasted state simulated intestinal fluid) and high purity water. Concentrations in the saturated solutions were determined after 24 hours by HPLC.

Series [2] is described as follows: Stability assessment of crystalline form by XRPD before and after storage. It is filed as physicochemical. To be noted: 7 days. How it is done:
FIG. 7a˜7c show XRPD patterns overlay of crystalline Form M of lenvatinib mesylate before and after stored in the following conditions for 7 days: a) sealed in aluminum plastic bags at 25° C./60% RH; b) sealed in aluminum plastic bags at 40° C./75% RH; c) sealed in aluminum plastic bags at 60° C./75% RH.
Stability assessment of Form M of lenvatinib mesylate of the present disclosure:
Three samples of crystalline Form M of lenvatinib mesylate were stored under the following conditions: a) sealed in aluminum plastic bags at 25° C./60% RH; b) sealed in aluminum plastic bags at 40° C./75% RH; c) sealed in aluminum plastic bags at 60° C./75% RH. The samples were tested by XRPD before and after stored for 7 days.

SMILES strings stand for the structures. Converted amounts (≈) assume the structure as drawn.

In general, Solubility refers to the concentration that dissolves in the medium under given conditions. Regarding `COc1cc2nccc(Oc3ccc(NC(=O)NC4CC4)c(Cl)c3)c2cc1C(N)=O.CS(=O)(=O)O` [Form C, reference compound], the Solubility is 1.5 µg/mL in series [1] (FaSSIF (fasted state simulated intestinal fluid), saturated solution, 24 h); 0.3 µg/mL in series [1] (FeSSIF (fed state simulated intestinal fluid) pH 5.0, saturated solution, 24 h); 1000 µg/mL in series [1] (High purity water, saturated solution, 24 h); 640 µg/mL in series [1] (SGF (simulated gastric fluid) pH 1.8, saturated solution, 24 h).

Usually solubility stands for the concentration that dissolves in the medium under given conditions. A high value points to a readily soluble substance. As to `COc1cc2nccc(Oc3ccc(NC(=O)NC4CC4)c(Cl)c3)c2cc1C(N)=O` [Form M, 4-{3-Chloro-4-[(cyclopropylcarbamoyl)amino]phenoxy}-7-methoxy-6-quinolinecarboxamide], the “Crystalline form stability (XRPD pattern before and after storage)” value in series [2] (sealed in aluminum plastic bags at 25° C./60% RH), in series [2] (sealed in aluminum plastic bags at 40° C./75% RH) and in series [2] (sealed in aluminum plastic bags at 60° C./75% RH) was “remained unchanged” in each case. Moreover, the “Solubility in comparison with Form C in patent CN1890220A” value in series [1] (SGF, FaSSIF, FeSSIF, high purity water, 24 h) is “higher solubility”. Also, the solubility at 24 h in series [1] (fasted state simulated intestinal fluid (FaSSIF), fassif) was 24 µg/mL (≈ 56.2 µM); in series [1] (fed state simulated intestinal fluid (FeSSIF), pH 5, fessif), 0.4 µg/mL (≈ 0.937 µM); in series [1] (high purity water, water) it was 1600 µg/mL (≈ 3750 µM); in series [1] (simulated gastric fluid (SGF), pH 1.8, simulated gastric fluid), 690 µg/mL (≈ 1620 µM).
